Target: T1, PD-1/PD-L1 (Homo sapiens, UniProt Q9NZQ7)
T1 construct: purchased CisBio
Test: PD1-PDL1 HTRF assay
Details: PD-1/PD-L1 homogenous time-resolved fluorescence (HTRF) binding assay; Tag1-PDL1 5 nM, Tag2-PD1 50 nM
Procedure, shortened: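 Compound (8 concentrations) was preincubated 15 min at room temperature with Tag1-PD-L1 and Tag2-PD-1, added as 5 nM and 50 nM solutions. Eu-labelled anti-Tag1 and XL665-labelled anti-Tag2 were then added for 1 h, and the 665/620 nm ratio (×10^4; excitation 320 nm) was fitted to the Hill equation for IC50.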

T1 sequence (Q9NZQ7 19-238 limits assumed): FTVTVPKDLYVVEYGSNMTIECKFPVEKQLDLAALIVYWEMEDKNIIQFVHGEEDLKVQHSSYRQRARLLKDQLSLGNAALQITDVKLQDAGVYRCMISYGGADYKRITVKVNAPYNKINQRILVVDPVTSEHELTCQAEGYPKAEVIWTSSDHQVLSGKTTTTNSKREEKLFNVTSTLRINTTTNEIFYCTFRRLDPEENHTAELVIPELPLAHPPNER

| IC50 [nM] | Compound |
| --- | --- |
| ≤ 10 | Cc1c(Nc2nccc3cc(CN4CC[C@@H](O)C4)cnc23)cccc1-c1cccc(-c2ccn3c(-c4ccc(CNC[C@@H]5CCC(=O)N5)cc4)nnc3c2)c1C [Example 79, (S)-5-(((4-(7-(3′-((3-(((R)-3-hydroxypyrrolidin-1-yl)methyl)-1,7-naphthyridin-8-yl)amino)-2,2′-dimethyl-[1,1′-biphenyl]-3-yl)-[1,2,4]triazolo[4,3-a]pyridin-3-yl)benzyl)amino)methyl)pyrrolidin-2-one] |
| ≤ 10 | Cc1c(Nc2nccc3cc(CN4CC[C@@H](O)C4)cnc23)cccc1-c1cccc(-c2ccn3c(-c4ccc(CN5CCC[C@@H]5C(=O)O)cc4)nnc3c2)c1C [Example 80, (4-(7-(3′-((3-(((R)-3-hydroxypyrrolidin-1-yl)methyl)-1,7-naphthyridin-8-yl)amino)-2,2′-dimethyl-[1,1′-biphenyl]-3-yl)-[1,2,4]triazolo[4,3-α]pyridin-3-yl)benzyl)-D-proline] |
| ≤ 10 | Cc1c(Nc2nccc3cc(CN4CC[C@@H](O)C4)cnc23)cccc1-c1cccc(-c2ccn3c(-c4ccc(CNCCO)cc4)nnc3c2)c1C [Example 81, (R)-1-((8-((3′-(3-(4-(((2-hydroxyethyl)amino)methyl)phenyl)-[1,2,4]triazolo[4,3-α]pyridin-7-yl)-2,2′-dimethyl-[1,1′-biphenyl]-3-yl)amino)-1,7-naphthyridin-3-yl)methyl)pyrrolidin-3-ol] |
| ≤ 10 | Cc1c(Nc2nccc3cc(CNCCO)cnc23)cccc1-c1cccc(-c2ccn3c(-c4ccc(CNCCO)cc4)nnc3c2)c1C [Example 84, 2-((4-(7-(3′-((3-(((2-hydroxyethyl)amino)methyl)-1,7-naphthyridin-8-yl)amino)-2,2′-dimethyl-[1,1′-biphenyl]-3-yl)-[1,2,4]triazolo[4,3-a]pyridin-3-yl)benzyl)amino)ethan-1-ol] |
| 100 to 1000 | Cc1c(-c2ccc(CNCCO)cc2)cccc1-c1cccc(-c2ccn3c(NCCO)nnc3c2)c1C [Example 85, 2-(((3″-(3-((2-hydroxyethyl)amino)-[1,2,4]triazolo[4,3-a]pyridin-7-yl)-2′,2″-dimethyl-[1,1′:3′,1″-terphenyl]-4-yl)methyl)amino)ethan-1-ol] |
| 10 to 100 | Cc1c(-c2ccc(CNCCO)cc2)cccc1-c1cccc(-c2ccn3c(CNC[C@@H]4CCC(=O)N4)nnc3c2)c1C [Example 86, (S)-5-((((7-(4″-(((2-hydroxyethyl)amino)methyl)-2,2′-dimethyl-[1,1′:3′,1″-terphenyl]-3-yl)-[1,2,4]triazolo[4,3-a]pyridin-3-yl)methyl)amino)methyl)pyrrolidin-2-one] |
| 10 to 100 | Cc1c(-c2ccc(CNCCO)cc2)cccc1-c1cccc(-c2ccn3c(CN4CC[C@@H](C(=O)O)C4)nnc3c2)c1C [Example 87, (R)-1-((7-(4″-(((2-hydroxyethyl)amino)methyl)-2,2′-dimethyl-[1,1′:3′,1″-terphenyl]-3-yl)-[1,2,4]triazolo[4,3-a]pyridin-3-yl)methyl)pyrrolidine-3-carboxylic acid] |
| 10 to 100 | Cc1c(-c2ccc(CNCCO)cc2)cccc1-c1cccc(-c2ccn3c(CN4CCC[C@@H]4C(=O)O)nnc3c2)c1C [Example 88, ((7-(4″-(((2-hydroxyethyl)amino)methyl)-2,2′-dimethyl-[1,1′:3′,1″-terphenyl]-3-yl)-[1,2,4]triazolo[4,3-α]pyridin-3-yl)methyl)-D-proline] |
| 100 to 1000 | Cc1c(-c2ccn3c(CNCCO)nnc3c2)cccc1-c1cccc(-c2ccn3c(CNCCO)nnc3c2)c1C [Example 89, 2,2′-((((2,2′-dimethyl-[1,1′-biphenyl]-3,3′-diyl)bis([1,2,4]triazolo[4,3-a]pyridine-7,3-diyl))bis(methylene))bis(azanediyl))bis(ethan-1-ol)] |
| ≤ 10 | Cc1c(-c2ccc(CNC[C@@H]3CCC(=O)N3)cc2)cccc1-c1cccc(-c2ccn3c(CNC[C@@H]4CCC(=O)N4)nnc3c2)c1C [Example 90, (S)-5-((((2′,2″-dimethyl-3″-(3-(((((S)-5-oxopyrrolidin-2-yl)methyl)amino)methyl)-[1,2,4]triazolo[4,3-a]pyridin-7-yl)-[1,1′:3′,1″-terphenyl]-4-yl)methyl)amino)methyl)pyrrolidin-2-one] |
| 10 to 100 | Cc1c(-c2ccc(CNCCO)cc2)cccc1-c1cccc(-c2ccn3c(CNCCO)nnc3c2)c1C [Example 91, 2-(((7-(4″-(((2-hydroxyethyl)amino)methyl)-2,2′-dimethyl-[1,1′:3′,1″-terphenyl]-3-yl)-[1,2,4]triazolo[4,3-α]pyridin-3-yl)methyl)amino)ethan-1-ol] |
| ≤ 10 | Cc1c(NC(=O)c2ccc(CNCCO)cn2)cccc1-c1cccc(-c2ccn3c(CNCCO)nnc3c2)c1C [Example 92, 5-(((2-hydroxyethyl)amino)methyl)-N-(3′-(3-(((2-hydroxyethyl)amino)methyl)-[1,2,4]triazolo[4,3-a]pyridin-7-yl)-2,2′-dimethyl-[1,1′-biphenyl]-3-yl)picolinamide] |
| 100 to 1000 | Cc1c(NC(=O)c2ccc(CNCCO)cc2)cccc1-c1cccc(-c2ccn3c(CNCCO)nnc3c2)c1C [Example 93, 4-(((2-hydroxyethyl)amino)methyl)-N-(3′-(3-(((2-hydroxyethyl)amino)methyl)-[1,2,4]triazolo[4,3-α]pyridin-7-yl)-2,2′-dimethyl-[1,1′-biphenyl]-3-yl)benzamide] |
| ≤ 10 | COc1nc(-c2cccc(-c3cccc(-c4ccc5nnc(CNC[C@@H]6CCC(=O)N6)n5c4)c3C)c2C)cnc1CNC[C@@H]1CCC(=O)N1 [Example 94, (S)-5-((((5-(2,2′-dimethyl-3′-(3-(((((S)-5-oxopyrrolidin-2-yl)methyl)amino)methyl)-[1,2,4]triazolo[4,3-a]pyridin-6-yl)-[1,1′-biphenyl]-3-yl)-3-methoxypyrazin-2-yl)methyl)amino)methyl)pyrrolidin-2-one] |
| ≤ 10 | Cc1c(NC(=O)c2ccc(CNCCO)cn2)cccc1-c1cccc(-c2ccn3c(CNC[C@@H]4CCC(=O)N4)nnc3c2)c1C [Example 95, (S)—N-(2,2′-dimethyl-3′-(3-((((5-oxopyrrolidin-2-yl)methyl)amino)methyl)-[1,2,4]triazolo[4,3-a]pyridin-7-yl)-[1,1′-biphenyl]-3-yl)-5-(((2-hydroxyethyl)amino)methyl)picolinamide] |
| ≤ 10 | OCCNCc1ccc(-c2cccc(-c3cccc(-c4ccn5c(CNCCO)nnc5c4)c3Cl)c2Cl)cc1 [Example 96, 2-(((2′,2″-dichloro-3″-(3-(((2-hydroxyethyl)amino)methyl)-[1,2,4]triazolo[4,3-a]pyridin-7-yl)-[1,1′:3′,1″-terphenyl]-4-yl)methyl)amino)ethan-1-ol] |
| ≤ 10 | O=C1CC[C@@H](CNCc2ccc(-c3cccc(-c4cccc(-c5ccn6c(CNC[C@@H]7CCC(=O)N7)nnc6c5)c4Cl)c3Cl)cc2)N1 [Example 97, (S)-5-((((21,2″-dichloro-3″-(3-(((((S)-5-oxopyrrolidin-2-yl)methyl)amino)methyl)-[1,2,4]triazolo[4,3-α]pyridin-7-yl)-[1,1′:3′,1″-terphenyl]-4-yl)methyl)amino)methyl)pyrrolidin-2-one] |
| 10 to 100 | Cc1c(-c2ccc(CNCCO)cc2)cccc1-c1cccc(-c2ccn3nc(CNCCO)nc3c2)c1C [Example 98, 2-(((7-(4″-(((2-hydroxyethyl)amino)methyl)-2,2′-dimethyl-[1,1′:3′,1″-terphenyl]-3-yl)-[1,2,4]triazolo[1,5-a]pyridin-2-yl)methyl)amino)ethan-1-ol] |
